Assay results taken from PMC9603770, “Broad-Spectrum Inhibitors against Class A, B, and C Type β-Lactamases to Block the Hydrolysis against Antibiotics: Kinetics and Structural Characterization” (Microbiology Spectrum, 2022).
In brackets after ≈: the same amount, converted by molar mass. Like-named read-outs stand apart in the source and are kept apart here.

Experiments:
SHV-1 = target: T1, SHV-1 (Klebsiella pneumoniae, UniProt P0AD64); experiment: Steady-state kinetics of antibiotic hydrolysis with inhibitor; assay type: biochemical; settings: inhibitor concentration as per IC50
T1 construct: made in house; host or cells: E. coli (DH5 and BL21(DE3) named; pET-28a)
Experimental: (§1) The enzyme kinetics parameters (Km, and kcat) for all six proteins/enzymes in combination with different antibiotics (cefotaxime, imipenem, and meropenem), were calculated. The concentration of inhibitors, D63, D2148, and D2573, was as per the IC50 value (Fig. 5); the kinetic parameters are listed in Table 8.
(§2) The steady-state kinetics of all six proteins were determined using the antibiotics:imipenem (Δε295 = −11,500 M^−1 cm^−1), meropenem (Δε297 = −10,940 M^−1 cm^−1), and cefotaxime (Δε264 = −27,250 M^−1 cm^−1). In this study, the D63, D2148, and D2573 inhibitors were tested. Hydrolysis of β-lactam antibiotics was detected by monitoring the variation in absorbance due to cleavage of the β-lactam ring in 50 mM, pH 7.0, phosphate buffer ([40], [41]). For hydrolysis of substrate (cefotaxime, imipenem, and meropenem) kinetics parameters, Km and kcat were calculated by using Michaelis Menten equations (equations 2 and 3). (2) V =Vmax [S]/Km + [S] (3) kcat = Vmax/E where E and S are the enzyme and substrate concentration, Km is the Michaelis-Mentent constant, kcat is the turnover number, and V and Vmax are the initial and maximum velocity of the hydrolysis, respectively.

Amp-C = target: T2, Amp-C (Escherichia coli, UniProt P00811); experiment: as above; assay type: biochemical; settings: inhibitor concentration as per IC50
T2 construct: made in house; host or cells: E. coli (DH5 and BL21(DE3) named; pET-28a)
Experimental: as §1, §2

CTX-M-15 [1] = target: T3, CTX-M-15 (Escherichia coli, UniProt Q9EXV5); experiment: as above; assay type: biochemical; settings: inhibitor concentration as per IC50
T3 construct: made in house; host or cells: E. coli (DH5 and BL21(DE3) named)
Experimental: as §1, §2

KPC-2 = target: T4, KPC-2 (Klebsiella pneumoniae, UniProt Q9F663); experiment: as above; assay type: biochemical; settings: inhibitor concentration as per IC50
T4 construct: made in house; host or cells: E. coli (DH5 and BL21(DE3) named; pET-28a)
Experimental: as §1, §2

NDM-1 = target: T5, NDM-1 (Klebsiella pneumoniae, UniProt C7C422); experiment: as above; assay type: biochemical; settings: inhibitor concentration as per IC50
T5 construct: made in house; host or cells: E. coli (DH5 and BL21(DE3) named)
Experimental: as §1, §2

TEM-1 = target: T6, TEM-1 (Escherichia coli, UniProt P62593); experiment: as above; assay type: biochemical; settings: inhibitor concentration as per IC50
T6 construct: made in house; host or cells: E. coli (DH5 and BL21(DE3) named; pET-28a)
Experimental: as §1, §2

CTX-M-15 [2] = target: T3, CTX-M-15; set-up: method as in PMID 20921316; settings: cited from earlier work
clinical strain AK-66 = experiment: MIC, microdilution; assay type: cell-based
Experimental: (§3) The blaSHV-1, blaTEM-1, blaKPC-2, and blaAmp-C genes were cloned in the pET-28a vector individually, followed by its transformation in Escherichia coli DH5α cells. The MIC values was determined for clinical strains (AK-10, AK-12, AK-18, NP-6, AK-67, and AK-66) and E. coli DH5α cells with selected clones (blaSHV-1, blaTEM-1, blaKPC-2, blaAmp-C, blaCTX-M-15, and blaNDM-1) carrying vectors individually.
(§4) In a series of 2-fold dilutions, E. coli cells were given escalating doses of antibiotics from 0 to 512 μg/mL.

clinical strain AK-67 = experiment: MIC, microdilution; assay type: cell-based
Experimental: as §3, §4

clinical strain NP-6 = experiment: MIC, microdilution; assay type: cell-based
Experimental: as §3, §4

clinical strain AK-10 = experiment: MIC, microdilution; assay type: cell-based
Experimental: as §3, §4

clinical strain AK-18 = experiment: MIC, microdilution; assay type: cell-based
Experimental: as §3, §4

[3] = test system: E. coli DH5α cells with blaSHV-1 clone; experiment: microbe, parasite or virus in culture; assay type: cell-based; settings: Escherichia coli
Experimental: as §3, §4

[4] = test system: E. coli DH5α cells with blaKPC-2 clone; experiment: microbe, parasite or virus in culture; assay type: cell-based; settings: Escherichia coli
Experimental: as §3, §4

[5] = test system: E. coli DH5α cells with blaAmp-C clone; experiment: microbe, parasite or virus in culture; assay type: cell-based; settings: Escherichia coli
Experimental: as §3, §4

[6] = test system: E. coli DH5α cells with blaNDM-1 clone; experiment: microbe, parasite or virus in culture; assay type: cell-based; settings: Escherichia coli
Experimental: as §3, §4

[7] = test system: E. coli DH5α cells with blaTEM-1 clone; experiment: microbe, parasite or virus in culture; assay type: cell-based; settings: Escherichia coli
Experimental: as §3, §4

[8] = test system: E. coli DH5α cells with blaCTX-M-15 clone; experiment: microbe, parasite or virus in culture; assay type: cell-based; settings: Escherichia coli
Experimental: as §3, §4

[9] = clinical strain AK-66, read-out: MIC

T2 sequence (P00811 20-377): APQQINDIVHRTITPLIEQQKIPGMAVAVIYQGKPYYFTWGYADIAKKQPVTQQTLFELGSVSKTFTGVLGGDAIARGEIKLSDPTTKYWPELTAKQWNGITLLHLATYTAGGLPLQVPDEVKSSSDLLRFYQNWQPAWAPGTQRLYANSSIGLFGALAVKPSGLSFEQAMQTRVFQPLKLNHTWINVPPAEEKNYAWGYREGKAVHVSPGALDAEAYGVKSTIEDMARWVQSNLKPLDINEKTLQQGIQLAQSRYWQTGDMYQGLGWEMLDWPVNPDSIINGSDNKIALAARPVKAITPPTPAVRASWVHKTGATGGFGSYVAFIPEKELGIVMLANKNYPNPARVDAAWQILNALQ
T5 sequence (C7C422 29-270, looked up, species assumed): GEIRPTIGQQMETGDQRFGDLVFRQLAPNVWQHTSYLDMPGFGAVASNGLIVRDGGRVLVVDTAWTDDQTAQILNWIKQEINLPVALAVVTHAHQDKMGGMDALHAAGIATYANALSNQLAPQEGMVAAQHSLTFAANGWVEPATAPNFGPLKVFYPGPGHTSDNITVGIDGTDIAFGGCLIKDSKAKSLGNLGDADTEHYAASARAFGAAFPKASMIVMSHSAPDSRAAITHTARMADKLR
T1 sequence (P0AD64 22-286): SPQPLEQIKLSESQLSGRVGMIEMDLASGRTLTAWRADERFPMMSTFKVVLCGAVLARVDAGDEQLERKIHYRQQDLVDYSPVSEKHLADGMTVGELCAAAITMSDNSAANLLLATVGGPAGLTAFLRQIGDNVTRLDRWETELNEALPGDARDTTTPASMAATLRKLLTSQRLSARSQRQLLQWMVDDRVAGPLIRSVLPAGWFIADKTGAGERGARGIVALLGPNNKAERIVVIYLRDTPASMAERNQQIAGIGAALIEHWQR
T6 sequence (P62593 24-286 limits assumed): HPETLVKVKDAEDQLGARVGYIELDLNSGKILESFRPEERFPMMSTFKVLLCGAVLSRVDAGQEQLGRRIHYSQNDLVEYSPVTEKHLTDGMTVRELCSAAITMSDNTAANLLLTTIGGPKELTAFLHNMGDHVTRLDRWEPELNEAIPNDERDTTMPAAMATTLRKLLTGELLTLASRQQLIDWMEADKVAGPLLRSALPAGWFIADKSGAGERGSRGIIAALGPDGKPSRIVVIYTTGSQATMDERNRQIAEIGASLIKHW
T4 sequence (Q9F663 25-293, looked up, species assumed): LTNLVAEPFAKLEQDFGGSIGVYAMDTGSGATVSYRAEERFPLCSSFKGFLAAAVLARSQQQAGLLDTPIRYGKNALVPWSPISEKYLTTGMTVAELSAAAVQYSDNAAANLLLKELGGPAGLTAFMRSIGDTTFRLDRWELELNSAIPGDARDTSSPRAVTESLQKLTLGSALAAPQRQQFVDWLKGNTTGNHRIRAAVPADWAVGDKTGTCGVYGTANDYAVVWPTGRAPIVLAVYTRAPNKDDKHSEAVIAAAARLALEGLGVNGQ
T3 sequence (Q9EXV5 29-291, species assumed): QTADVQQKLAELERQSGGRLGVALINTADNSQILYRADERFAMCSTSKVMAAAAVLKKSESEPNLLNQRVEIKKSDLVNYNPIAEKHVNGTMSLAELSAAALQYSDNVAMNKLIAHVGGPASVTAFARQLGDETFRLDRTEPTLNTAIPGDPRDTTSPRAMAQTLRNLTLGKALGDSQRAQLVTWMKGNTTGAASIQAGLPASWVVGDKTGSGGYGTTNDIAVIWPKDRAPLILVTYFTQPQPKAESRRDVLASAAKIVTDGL

Which “Km or Ki” value (SHV-1; cefotaxime) does the source give for `NC(=O)[C@@H]1CC[C@@H]2CN1C(=O)N2OS(=O)(=O)O` [Avibactam, reference compound] here?
Its value is 1,201 μΜ.

What about the kcat (SHV-1; cefotaxime) of the same molecule?
Its kcat is 0.6119 S^−1.

And the “Km or Ki” value (SHV-1; imipenem)?
Its value is 835.4 μΜ.

And the kcat (SHV-1; imipenem)?
The kcat was 0.5531 S^−1.

And the “Km or Ki” value (SHV-1; meropenem)?
The value was 532 μΜ.

What about the kcat (SHV-1; meropenem) of the same molecule?
Its kcat is 0.4803 S^−1.

What about the “Km or Ki” value (Amp-C; cefotaxime) of the same molecule?
The value was 1,199 μΜ.

What about the kcat (Amp-C; cefotaxime) of the same molecule?
The kcat was 1.417 S^−1.

And the “Km or Ki” value (Amp-C; imipenem)?
Its value is 321 μΜ.

What about the kcat (Amp-C; imipenem) of the same molecule?
Its kcat is 0.861 S^−1.

What about the “Km or Ki” value (Amp-C; meropenem) of the same molecule?
Its value is 1,442 μΜ.

And the kcat (Amp-C; meropenem)?
Its kcat is 2.213 S^−1.

What about the “Km or Ki” value (CTX-M-15 [1]; cefotaxime) of the same molecule?
Its value is 2047 μΜ.

And the kcat (CTX-M-15 [1]; cefotaxime)?
The kcat was 1.858 S^−1.

What about the “Km or Ki” value (CTX-M-15 [1]; imipenem) of the same molecule?
Its value is 2,918 μΜ.

And the kcat (CTX-M-15 [1]; imipenem)?
The kcat was 0.4807 S^−1.

And the “Km or Ki” value (CTX-M-15 [1]; meropenem)?
The value was 745.5 μΜ.

And the kcat (CTX-M-15 [1]; meropenem)?
Its kcat is 1.566 S^−1.

What about the “Km or Ki” value (KPC-2; cefotaxime) of the same molecule?
Its value is 1299 μΜ.

And the kcat (KPC-2; cefotaxime)?
The kcat was 0.549 S^−1.

What about the “Km or Ki” value (KPC-2; imipenem) of the same molecule?
Its value is 2,637 μΜ.

And the kcat (KPC-2; imipenem)?
The kcat was 1.499 S^−1.

What about the “Km or Ki” value (KPC-2; meropenem) of the same molecule?
Its value is 1,740 μΜ.

And the kcat (KPC-2; meropenem)?
Its kcat is 0.72 S^−1.

What about the “Km or Ki” value (NDM-1; cefotaxime) of the same molecule?
Its value is 212.2 μΜ.

And the kcat (NDM-1; cefotaxime)?
The kcat was 1.036 S^−1.

And the “Km or Ki” value (NDM-1; imipenem)?
The value was 615.5 μΜ.

What about the kcat (NDM-1; imipenem) of the same molecule?
Its kcat is 2.194 S^−1.

And the “Km or Ki” value (NDM-1; meropenem)?
Its value is 440.9 μΜ.

What about the kcat (NDM-1; meropenem) of the same molecule?
Its kcat is 1.268 S^−1.

And the “Km or Ki” value (TEM-1; cefotaxime)?
The value was 1,558 μΜ.

And the kcat (TEM-1; cefotaxime)?
Its kcat is 1.339 S^−1.

What about the “Km or Ki” value (TEM-1; imipenem) of the same molecule?
The value was 2,918 μΜ.

And the kcat (TEM-1; imipenem)?
The kcat was 1.107 S^−1.

And the “Km or Ki” value (TEM-1; meropenem)?
Its value is 12,315 μΜ.

What about the kcat (TEM-1; meropenem) of the same molecule?
Its kcat is 5.916 S^−1.

What about the IC50 (CTX-M-15 [2]) of the same molecule?
The IC50 was 5 nM.

With `CO/N=C(\C(=O)N[C@@H]1C(=O)N2C(C(=O)O)=C(COC(C)=O)CS[C@H]12)c1csc(N)n1` [Cefotaxime] as the molecule, how does the MIC (clinical strain AK-66) read?
Its MIC is 512 µg/mL (≈ 1120 µM).

What about the MIC (clinical strain AK-67) of the same molecule?
Its MIC is 512 µg/mL (≈ 1120 µM).

And the MIC (clinical strain NP-6)?
The MIC was 16 µg/mL (≈ 35.1 µM).

What about the MIC (clinical strain AK-10) of the same molecule?
The MIC was 1020 µg/mL (≈ 2250 µM).

And the MIC (clinical strain AK-18)?
Its MIC is 32 µg/mL (≈ 70.3 µM).

And the MIC [3]?
The MIC was 4 µg/mL (≈ 8.78 µM).

What about the MIC [4] of the same molecule?
Its MIC is 2 µg/mL (≈ 4.39 µM).

What about the MIC [5] of the same molecule?
The MIC was 2 µg/mL (≈ 4.39 µM).

And the MIC [6]?
The MIC was 256 µg/mL (≈ 562 µM).

And the MIC [7]?
The MIC was 2 µg/mL (≈ 4.39 µM).

What about the MIC [8] of the same molecule?
Its MIC is 512 µg/mL (≈ 1120 µM).

What does the source list for `CO[C@@]1(NC(=O)Cc2cccs2)C(=O)N2C(C(=O)O)=C(COC(N)=O)CS[C@@H]21` [Cefoxitin]?
MIC (clinical strain AK-66; [9]): 64 µg/mL (≈ 150 µM); MIC (clinical strain NP-6): 64 µg/mL (≈ 150 µM); MIC [3]: 32 µg/mL (≈ 74.9 µM); MIC [4]: 32 µg/mL (≈ 74.9 µM); MIC [5]: 32 µg/mL (≈ 74.9 µM); MIC [6]: 32 µg/mL (≈ 74.9 µM); MIC [7]: 32 µg/mL (≈ 74.9 µM); MIC [8]: 32 µg/mL (≈ 74.9 µM)

With `C[C@@H](O)[C@H]1C(=O)N2C(C(=O)O)=C(SCCN=CN)C[C@H]12` [Imipenem] as the molecule, how does the MIC (clinical strain AK-66; [9]) read?
Its MIC is 1020 µg/mL (≈ 3420 µM).

What about the MIC (clinical strain NP-6) of the same molecule?
The MIC was 64 µg/mL (≈ 214 µM).

What about the MIC (clinical strain AK-10) of the same molecule?
The MIC was 128 µg/mL (≈ 428 µM).

What about the MIC [3] of the same molecule?
Its MIC is 16 µg/mL (≈ 53.4 µM).

And the MIC [4]?
The MIC was 16 µg/mL (≈ 53.4 µM).

What about the MIC [5] of the same molecule?
Its MIC is 16 µg/mL (≈ 53.4 µM).

And the MIC [6]?
The MIC was 512 µg/mL (≈ 1710 µM).

And the MIC [7]?
Its MIC is 16 µg/mL (≈ 53.4 µM).

And the MIC [8]?
Its MIC is 32 µg/mL (≈ 107 µM).

What does the source list for `C[C@@H](O)[C@H]1C(=O)N2C(C(=O)O)=C(S[C@@H]3CN[C@H](C(=O)N(C)C)C3)[C@H](C)[C@H]12` [Meropenem]?
MIC (clinical strain AK-66; [9]): 1020 µg/mL (≈ 2670 µM); MIC (clinical strain NP-6): 16 µg/mL (≈ 41.7 µM); MIC (clinical strain AK-10): 32 µg/mL (≈ 83.4 µM); MIC (clinical strain AK-18): 32 µg/mL (≈ 83.4 µM); MIC [3]: 2 µg/mL (≈ 5.22 µM); MIC [4]: 2 µg/mL (≈ 5.22 µM); MIC [5]: 4 µg/mL (≈ 10.4 µM); MIC [6]: 1020 µg/mL (≈ 2670 µM); MIC [7]: 2 µg/mL (≈ 5.22 µM); MIC [8]: 2 µg/mL (≈ 5.22 µM)
